Data as given in the supplement of paper PMC12350171.

What was measured:
[1] = system: Com21 synthetic gut community; test: community biomass OD578 after 24 h drug treatment relative to untreated (fraction of untreated control); higher = more community growth; details: community: Com21 (Com20 + E. coli ED1a)
Experimental: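 Com21 (Com20 plus E. coli ED1a) was treated with drug for 24 h under anaerobic conditions in mGAM. Community OD578 was then measured and normalised to untreated Com21; mean of 3 biological replicates.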

[2] = system: Salmonella enterica typhimurium; test: IC25 growth inhibition; higher = less potent
How it was run: (§1)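 Overnight monocultures grown in mGAM were moved into pre-reduced plates containing twofold drug dilutions, at a starting OD578 of 0.01 with 1% DMSO (or water). Plates were kept anaerobic and read hourly at OD578 in a plate reader, with at least three biological replicates. For each concentration, the median area under the growth curve was made monotonic, and IC25 was the lowest concentration whose median fell below a cutoff, reported as a tested interval. That cutoff was 0.75.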

Clostridium ramosum = test: IC25 growth inhibition; higher = less potent
How it was run: as §1

Escherichia coli ED1a = test: IC25 growth inhibition; higher = less potent
How it was run: as §1

Roseburia intestinalis = test: IC25 growth inhibition; higher = less potent
How it was run: as §1

[3] = system: Yersinia pseudotuberculosis; test: IC25 growth inhibition; higher = less potent
How it was run: as §1

Clostridium perfringens = test: IC25 growth inhibition; higher = less potent
How it was run: as §1

[4] = system: Fusobacterium nucleatum subsp. Nucleatum; test: IC25 growth inhibition; higher = less potent
How it was run: as §1

[5] = system: Clostridium saccharolyticum; test: IC25 growth inhibition; higher = less potent
How it was run: as §1

Dorea formicigenerans = test: IC25 growth inhibition; higher = less potent
How it was run: as §1

Bacteroides fragilis NT = test: IC25 growth inhibition; higher = less potent
How it was run: as §1

Eubacterium rectale = test: IC25 growth inhibition; higher = less potent
How it was run: as §1

Ruminococcus gnavus = test: IC25 growth inhibition; higher = less potent
How it was run: as §1

[6] = system: Yersinia enterocolitica WA-314; test: IC25 growth inhibition; higher = less potent
How it was run: as §1

Coprococcus comes = test: IC25 growth inhibition; higher = less potent
How it was run: as §1

[7] = system: Bacteroides thetaiotaomicron; test: IC25 growth inhibition; higher = less potent
How it was run: as §1

Bacteroides vulgatus = test: IC25 growth inhibition; higher = less potent
How it was run: as §1

Bacteroides uniformis = test: IC25 growth inhibition; higher = less potent
How it was run: as §1

[8] = system: Streptococcus parasanguinis; test: IC25 growth inhibition; higher = less potent
How it was run: as §1

Collinsella aerofaciens = test: IC25 growth inhibition; higher = less potent
How it was run: as §1

Shigella flexneri = test: IC25 growth inhibition; higher = less potent
How it was run: as §1

Vibrio cholerae = test: IC25 growth inhibition; higher = less potent
How it was run: as §1

Clostridium bolteae = test: IC25 growth inhibition; higher = less potent
How it was run: as §1

Parabacteroides merdae = test: IC25 growth inhibition; higher = less potent
How it was run: as §1

Streptococcus salivarius = test: IC25 growth inhibition; higher = less potent
How it was run: as §1

[9] = drug pretreatment concentration 10 µM
[10] = drug pretreatment concentration 20 µM
[11] = drug pretreatment concentration 40 µM
[12] = drug pretreatment concentration 80 µM
[13] = drug pretreatment concentration 160 µM
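Throughout, for IC25 growth inhibition: lowest concentration where monotonic median growth AUC falls below 0.75 of drug-free control.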

| Structure (SMILES) | community biomass OD578 [1, 9] | community biomass OD578 [1, 10] | community biomass OD578 [1, 11] | community biomass OD578 [1, 12] | community biomass OD578 [1, 13] | IC25 growth inhibition [2] | IC25 growth inhibition (Clostridium ramosum) | IC25 growth inhibition (Escherichia coli ED1a) | IC25 growth inhibition (Roseburia intestinalis) | IC25 growth inhibition [3] | IC25 growth inhibition (Clostridium perfringens) | IC25 growth inhibition [4] | IC25 growth inhibition [5] | IC25 growth inhibition (Dorea formicigenerans) | IC25 growth inhibition (Bacteroides fragilis NT) | IC25 growth inhibition (Eubacterium rectale) | IC25 growth inhibition (Ruminococcus gnavus) | IC25 growth inhibition [6] | IC25 growth inhibition (Coprococcus comes) | IC25 growth inhibition [7] | IC25 growth inhibition (Bacteroides vulgatus) | IC25 growth inhibition (Bacteroides uniformis) | IC25 growth inhibition [8] | IC25 growth inhibition (Collinsella aerofaciens) | IC25 growth inhibition (Shigella flexneri) | IC25 growth inhibition (Vibrio cholerae) | IC25 growth inhibition (Clostridium bolteae) | IC25 growth inhibition (Parabacteroides merdae) | IC25 growth inhibition (Streptococcus salivarius) | community biomass OD578 ([1]; drug pretreatment concentration 2.5 µM) | community biomass OD578 ([1]; drug pretreatment concentration 5 µM) |
| --- | --- | --- | --- | --- | --- | --- | --- | --- | --- | --- | --- | --- | --- | --- | --- | --- | --- | --- | --- | --- | --- | --- | --- | --- | --- | --- | --- | --- | --- | --- | --- |
| C[C@H]1O[C@H](O[C@H]2[C@H](O)[C@@H](O)[C@@H](O[C@H]3[C@H](O)[C@@H](O)C(O)O[C@@H]3CO)O[C@@H]2CO)[C@H](O)[C@@H](O)[C@@H]1N[C@H]1C=C(CO)[C@@H](O)[C@H](O)[C@H]1O (stereo partly drawn) [Acarbose] | 1.03 | 1.01 | 1 | 1 | 0.989 | > 160 µM | > 160 µM | > 160 µM | ≤ 20 µM | > 160 µM | > 160 µM | > 160 µM | > 160 µM | > 160 µM | ≤ 10 µM | ≤ 40 µM | > 160 µM | > 160 µM | > 160 µM | > 160 µM | ≤ 40 µM | > 160 µM | > 160 µM | > 160 µM | > 160 µM | > 160 µM | > 160 µM | > 160 µM | > 160 µM | – | – |
| C[C@@H](O[C@H]1OCCN(Cc2n[nH]c(=O)[nH]2)[C@H]1c1ccc(F)cc1)c1cc(C(F)(F)F)cc(C(F)(F)F)c1 [Aprepitant] | 1 | 0.981 | 0.788 | 1.03 | 1.01 | > 160 µM | > 160 µM | > 160 µM | > 160 µM | > 80 µM | > 160 µM | > 160 µM | > 160 µM | > 160 µM | > 160 µM | > 160 µM | > 160 µM | > 160 µM | > 160 µM | > 160 µM | > 160 µM | > 160 µM | > 160 µM | > 80 µM | > 160 µM | > 160 µM | > 160 µM | > 160 µM | > 160 µM | – | – |
| CCc1oc2ccccc2c1C(=O)c1cc(Br)c(O)c(Br)c1 [Benzbromarone] | 0.877 | 0.86 | 0.812 | 0.687 | 0.301 | > 160 µM | ≤ 20 µM | > 160 µM | ≤ 40 µM | > 160 µM | ≤ 10 µM | ≤ 80 µM | ≤ 10 µM | ≤ 40 µM | ≤ 20 µM | ≤ 20 µM | ≤ 20 µM | > 160 µM | ≤ 40 µM | ≤ 20 µM | ≤ 20 µM | ≤ 10 µM | ≤ 10 µM | ≤ 40 µM | > 160 µM | ≤ 160 µM | ≤ 40 µM | ≤ 20 µM | ≤ 10 µM | – | – |
| CN(C)CCCN1c2ccccc2Sc2ccc(Cl)cc21 [Chlorpromazine] | 1 | 0.983 | 0.941 | 0.927 | 0.813 | > 160 µM | > 160 µM | ≤ 160 µM | ≤ 80 µM | ≤ 160 µM | ≤ 80 µM | ≤ 80 µM | ≤ 80 µM | ≤ 40 µM | ≤ 80 µM | ≤ 40 µM | ≤ 40 µM | > 160 µM | ≤ 160 µM | ≤ 80 µM | ≤ 40 µM | ≤ 80 µM | ≤ 160 µM | ≤ 160 µM | ≤ 160 µM | ≤ 160 µM | ≤ 160 µM | ≤ 40 µM | ≤ 80 µM | – | – |
| CN(C)CC/C=C1/c2ccccc2Sc2ccc(Cl)cc21 [Chlorprothixene] | 0.988 | 1.02 | 0.99 | 0.965 | 0.48 | > 160 µM | > 160 µM | > 160 µM | ≤ 40 µM | ≤ 160 µM | ≤ 80 µM | ≤ 80 µM | ≤ 80 µM | ≤ 40 µM | ≤ 80 µM | ≤ 80 µM | ≤ 160 µM | > 160 µM | ≤ 160 µM | ≤ 40 µM | ≤ 40 µM | ≤ 40 µM | > 160 µM | ≤ 160 µM | ≤ 160 µM | ≤ 20 µM | ≤ 160 µM | ≤ 160 µM | ≤ 160 µM | – | – |
| COCCOC(=O)C1=C(C)NC(C)=C(C(=O)OC/C=C/c2ccccc2)C1c1cccc([N+](=O)[O-])c1 (stereo not drawn) [Cilnidipine] | 1.06 | 1.03 | 0.993 | – | – | > 5 µM | > 5 µM | > 40 µM | > 10 µM | > 10 µM | > 20 µM | > 10 µM | > 10 µM | > 10 µM | > 10 µM | > 10 µM | > 20 µM | > 5 µM | > 10 µM | > 10 µM | > 10 µM | > 40 µM | > 20 µM | > 10 µM | > 10 µM | > 10 µM | > 10 µM | > 20 µM | > 10 µM | 1.03 | 1 |
| Clc1ccc(Cn2c(CN3CCCC3)nc3ccccc32)cc1 [Clemizole] | 1.01 | 1 | 1.03 | 1.02 | 0.964 | > 160 µM | ≤ 10 µM | > 160 µM | ≤ 5 µM | > 160 µM | ≤ 160 µM | ≤ 160 µM | ≤ 80 µM | ≤ 2.5 µM | > 160 µM | ≤ 2.5 µM | ≤ 10 µM | > 160 µM | ≤ 2.5 µM | ≤ 160 µM | ≤ 160 µM | > 160 µM | > 160 µM | ≤ 20 µM | > 160 µM | ≤ 80 µM | > 160 µM | ≤ 160 µM | > 160 µM | – | – |
